Patent publication US20260232578A1, “COMPOSITIONS AND METHODS FOR TRANSMUCOSAL ABSORPTION” (Tonix Pharma Limited, priority 2012, published 2026)
Like-named read-outs stand apart in the source and are kept apart here.

What was measured:
clinical [1] = conditions: human, in vivo, po, 5 mg
Experimental: The conditions used were as follows:
Quantitation was based on peak area ratio of the analytes versus their stable labeled internal standards. A weighted (1/C2), linear regression was performed to determine the concentration of the analytes. All regressions and figures presented in this validation report were generated by MDS Sciex Analyst version 1.4.2 and Thermo Electron Corporation Watson LIMS software, version 7.0.0.01b. […] Select receptors were analyzed in ligand-induced intracellular calcium mobilization.

in vivo = conditions: female, beagle, dog; for AUC(0-t) / AUC(0-inf): 1.79 mg; for AUC(0-t): AUC0-24 h; for AUC(0-inf): AUC0-∞h
Experimental: The protocol was designed as outlined in Table 23.
The method requires a lithium heparinized plasma sample volume of 200 μl. The extraction is a liquid liquid extraction with hexane, and the extracts are injected using an HPLC system and an […] (Applied Biosystems) for the MS/MS detection, with a “Onyx monolithic Phenomenex C18 100×3.0 mm” column.
Concentrations of the samples are calculated using Watson® 7.2.0.03 directly from chromatograms after automatic integration by Analyst® 1.5.1 and expressed as ng/mL. Mean plasma concentrations will be calculated (when calculable, i.e. n>2) using individual concentrations and will be expressed with the corresponding standard deviation value and variation coefficients (when calculable, i.e. n>3) (with CV(%)=(SD/mean)×100). The individual plasma concentrations are tabulated for each dog and scheduled sampling time. Concentrations below the LLOQ are designated as “BLQ.” All BLQ concentrations are substituted by zero for calculation of the descriptive statistics of the concentrations.
Pharmacokinetic analysis is carried out using […]® (Version 4.3 (Thermo Electron Corporation)). An independent model (non compartmental analysis) is used. All BLQ values in the absorption phase are substituted by zero, except for BLQ values between evaluable concentrations, which are treated as missing values, before the calculation of the pharmacokinetic variables. The terminal BLQ values are ignored. The following pharmacokinetic parameters are calculated:
5 non-naive female dogs are used, each dog receiving the test substance by oral administration via nasogastric tube to the stomach (NG) administration, sublingual administration (SL), and by intravenous (IV) administration. There is a “wash-out” period of at least two weeks between each type of administration. Blood samples are drawn as follows:
A single NG dose of 0.14 mg/kg (under a volume of 5 ml/kg and a solution concentration of 0.028 mg/mL) is administered.
After a wash-out period of at least 2 weeks, dogs are sedated using propofol (6.5 mg/kg IV). They will be then given a single sublingual dose of 0.14 mg/kg (under a volume of 0.056 mL/kg and a solution concentration of 2.5 mg/mL).
After a wash-out period of at least 2 weeks, dogs are given a single IV dose of 0.14 mg/kg (under a volume of 1 mL/kg, bolus of approximately 30 sec, and a solution concentration of 0.14 mg/mL).
Blood sampling was designed to minimize animal suffering and to ensure the quality of the biological samples, and was adapted from basic procedures commonly used in studies performed in dogs. Serial blood samples (1 tube of approximately 5 mL) are collected from a jugular vein using vacuum tubes containing lithium heparin. After sealing each tube, the blood samples are manually agitated and stored on ice until centrifugation (within 30 minutes of sampling). The samples are centrifuged at 1500 g, at 4° C., for 10 minutes. The entire resultant plasma obtained from each tube is immediately transferred to suitably labeled polypropylene tubes (3 aliquots of plasma of at least 500 μl each), which are stored upright at approximately −80° C. and protected from light until bioanalysis.
The dogs are fasted overnight before each administration, and food is given to the dogs 4 hours after each treatment. […] In each of the three routes, a potassium phosphate buffer (pH 7.4) is used as the vehicle.
As referred to in Example 4, a study was designed in order to assess the effects of the compositions and methods of the invention. […] The pharmacokinetic parameters were then calculated. A summary of the study design is as follows:
Blood was collected in a fasted condition for all three routes of administration. […] Briefly, the method involved liquid-liquid extraction with hexane. The extracts were injected using an HPLC system and an API4000® (Applied Biosystems) for the MS/MS detection, with an “Onyx monolithic Phenomenex C18 100×3.0 mm” column.

clinical [2] = conditions: human, in vivo, 2.4 mg
Experimental: Treatment A: A single dose of one TNX-102 2.4 mg SL tablet (with phosphate). Subjects were asked to keep the tablet under the tongue until dissolved and not to crush or chew it. Subjects were asked not to drink any water until at least 1 hour after dosing.
Treatment B: A single dose of one TNX-102-A 2.4 mg SL tablet (without phosphate). Subjects were asked to keep the tablet under the tongue until dissolved and not to crush or chew it. Subjects were asked not to drink any water until at least 1 hour after dosing.
Treatment C: A single dose of two TNX-102 2.4 mg SL tablets (with phosphate). Subjects will be asked to keep the tablets under the tongue until dissolved and not to crush or chew them. Subjects were asked not to drink any water until at least 1 hour after dosing.
Subjects were asked to swallow the administered tablet whole and not to crush or chew it.
Partial AUC at different times were calculated to examine the effect of sublingual administration on absorption.

[3] = cited from earlier work
muscarinic M2 receptor = muscarinic M2 receptor (Homo sapiens, UniProt P08172); assay: Equilibrium receptor binding, recombinant human receptor; design: expressed in transfected cells
muscarinic M2 receptor, sequence (P08172 whole entry): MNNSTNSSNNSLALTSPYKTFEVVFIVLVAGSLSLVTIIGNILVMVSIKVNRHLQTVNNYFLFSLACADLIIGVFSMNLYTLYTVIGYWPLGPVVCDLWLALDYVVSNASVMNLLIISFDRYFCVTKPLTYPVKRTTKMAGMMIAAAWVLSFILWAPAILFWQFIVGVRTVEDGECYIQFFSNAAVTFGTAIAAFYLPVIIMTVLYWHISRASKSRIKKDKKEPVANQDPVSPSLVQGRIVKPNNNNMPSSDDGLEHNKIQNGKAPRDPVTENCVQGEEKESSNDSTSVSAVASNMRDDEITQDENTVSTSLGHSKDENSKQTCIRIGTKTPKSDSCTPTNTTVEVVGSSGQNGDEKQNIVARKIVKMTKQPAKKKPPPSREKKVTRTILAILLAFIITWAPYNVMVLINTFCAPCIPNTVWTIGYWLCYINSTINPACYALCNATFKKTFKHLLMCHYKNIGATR

In the case of CN(C)CCC=C1c2ccccc2C=Cc2ccccc21 [cyclobenzaprine, 3-(5H-dibenzo[a,d]cyclohepten-5-ylidene)-N,N-dimethyl-1-propanamine], the AUC(0-t) (clinical [1]) is reported as 92.2 ± 29.9 ng·h/mL, the “increase in bioavailability, sublingual vs PO” value (in vivo) is reported as ~77 fold and the AUC(0-t) (in vivo) is reported as 127 ± 37.1 ng·h/mL. For the same compound, the AUC(0-inf) (in vivo) was 129 ± 36.4 ng·h/mL, the bioavailability (in vivo; bioavailability, conclusion) was ~100% and the concentration at 0.5 h (in vivo; iv, 0.14 mg/kg, plasma level) was 52.3 ng/mL. The concentration at 6 h (in vivo; iv, 0.14 mg/kg, plasma level) was 3.4 ng/mL, the AUC(0-t) (in vivo; iv) was 43.5 ± 3.77 ng·h/mL and the AUC(0-inf) (in vivo; iv) was 44.9 ± 4.15 ng·h/mL. For the same compound, the AUC(0-inf) (clinical [2]) was ~61 ng·h/mL, the Cmax (clinical [2]) was ~2.74 ng/mL and the AUC(0-t) (clinical [2]; AUC0-20min) was ~0.04 ng·h/mL. For the same compound, the AUC(0-t) (clinical [2]; AUC0-30min) was ~0.13 ng·h/mL, the AUC(0-t) (clinical [2]; AUC0-45min) was ~0.33 ng·h/mL and the AUC(0-t) (clinical [2]; AUC0-1 h) was ~0.61 ng·h/mL. The AUC(0-t) (clinical [2]; AUC0-2 h) was ~2.1 ng·h/mL, the AUC(0-t) (clinical [2]; AUC0-3 h) was ~3.93 ng·h/mL and the AUC(0-t) (clinical [2]; AUC0-4 h) was ~6.27 ng·h/mL. The AUC(0-t) (clinical [2]; AUC0-5.5 h) was ~10.1 ng·h/mL, the AUC(0-t) (clinical [2]; AUC0-6 h) was ~11.3 ng·h/mL and the AUC(0-t) (clinical [2]; AUC0-8 h) was ~15.1 ng·h/mL. The AUC(0-t) (clinical [2]; AUC0-12 h) was ~50.3 ng·h/mL, the AUC(0-t) (clinical [2]; AUC0-[…] (second mention, after AUC0-[…])) was ~8.81 ng·h/mL and the “plasma level (radioactive equivalents)” value ([3]; Beagles, 1.76 mg/kg by mouth, 1 hr (Hucker)) was 1.14 μg/ml [equivalent]. For the same compound, the “plasma level (radioactive equivalents)” value ([3]; Beagles, 1.76 mg/kg by mouth, 2 hr (Hucker)) was 1.46 μg/ml [equivalent], the “plasma level (radioactive equivalents)” value ([3]; Beagles, 1.76 mg/kg by mouth, 4 hr (Hucker)) was 0.92 μg/ml [equivalent] and the “plasma level (radioactive equivalents)” value ([3]; Beagles, 1.76 mg/kg by mouth, 6 hr (Hucker)) was 0.58 μg/ml [equivalent]. The “plasma level (radioactive equivalents)” value ([3]; Beagles, 1.76 mg/kg by mouth, 24 hr (Hucker)) was 0.10 μg/ml [equivalent], the “plasma level (radioactive equivalents)” value ([3]; Beagles, 1.76 mg/kg cyclobenzaprine HCl by mouth, 0.5 h (Hucker)) was 0.72 μg/ml [equivalent] and the “plasma level, Hucker dose adjusted for 0.14 mg/kg” value (“plasma level, Hucker dose adjusted” for short) ([3]; IV (saline), t 0.5 h) was 34.1 ng/mL. The “plasma level, Hucker dose adjusted” value ([3]; IV (saline), t 1 h) was 42.1 ng/mL, the “plasma level, Hucker dose adjusted” value ([3]; IV (saline), t 2 h) was 47.6 ng/mL and the “plasma level, Hucker dose adjusted” value ([3]; IV (saline), t 4 h) was 43.7 ng/mL. For the same compound, the “plasma level, Hucker dose adjusted” value ([3]; IV (saline), t 6 h) was 35.7 ng/mL, the “plasma level, Hucker dose adjusted” value ([3]; IV (saline), t 24 h) was 9.5 ng/mL and the “plasma level, Hucker dose adjusted” value ([3]; PO (gelatin capsule), t 0.5 h) was 57.1 ng/mL. For the same compound, the “plasma level, Hucker dose adjusted” value ([3]; PO (gelatin capsule), t 1 h) was 90.5 ng/mL, the “plasma level, Hucker dose adjusted” value ([3]; PO (gelatin capsule), t 2 h) was 115.9 ng/mL and the “plasma level, Hucker dose adjusted” value ([3]; PO (gelatin capsule), t 4 h) was 73.0 ng/mL. The “plasma level, Hucker dose adjusted” value ([3]; PO (gelatin capsule), t 6 h) was 46.0 ng/mL, the “plasma level, Hucker dose adjusted” value ([3]; PO (gelatin capsule), t 24 h) was 7.9 ng/mL and the “plasma level (radioactive equivalents)” value ([3]; dogs, 2 mg/kg intravenous in saline, 0.5 h (Hucker)) was 0.43 μg/ml [equivalent]. For the same compound, the “plasma level (radioactive equivalents)” value ([3]; dogs, 2 mg/kg intravenous in saline, 1 hr (Hucker)) was 0.53 μg/ml [equivalent], the “plasma level (radioactive equivalents)” value ([3]; dogs, 2 mg/kg intravenous in saline, 2 hr (Hucker)) was 0.60 μg/ml [equivalent] and the “plasma level (radioactive equivalents)” value ([3]; dogs, 2 mg/kg intravenous in saline, 4 hr (Hucker)) was 0.55 μg/ml [equivalent]. For the same compound, the “plasma level (radioactive equivalents)” value ([3]; dogs, 2 mg/kg intravenous in saline, 6 hr (Hucker)) was 0.45 μg/ml [equivalent] and the “plasma level (radioactive equivalents)” value ([3]; dogs, 2 mg/kg intravenous in saline, 24 hr (Hucker)) was 0.12 μg/ml [equivalent].
For CNCCC=C1c2ccccc2C=Cc2ccccc21 [norcyclobenzaprine, 3-(5H-dibenzo[a,d]cyclohepten-5-ylidene)-N-methyl-1-propanamine], the Ki (muscarinic M2 receptor) was 76 nM.
